Entries after “also recorded” stand apart in the source; their conditions may differ. Read-outs that look alike come from different tables or passages of the source.
How the values were obtained:
subcutaneous KB tumor [1] = experiment: In vivo PDT efficacy on growth of subcutaneous KB tumor xenograft in nude mice
Protocol: The growth of the tumor was monitored (images were taken) and tumor volume was measured using caliper.
In the following examples, the in vivo efficacy of the compounds is determined using KB tumor cell xenograft in nude mice. In these studies, KB cells were implanted subcutaneously and growth of the tumors was monitored. […] Moreover, once tumors grow to […], the compounds were injected via tail vein. […] In vivo efficacy of BPheid-a was evaluated by monitoring reduction of tumor volume.
KB cells that overexpressed folate receptor were implanted subcutaneously into female nude mice and allowed to grow to ˜50 mm^3 prior to initiation of treatment with 50 nmol of BPheid-a (1). […] In vivo efficacy of BPheid-a was evaluated by monitoring reduction of tumor volume.

KB cells [2] = test system: KB cells
KB tumors = experiment: Time dependent whole body fluorescence imaging of KB tumor bearing nude mice (IVIS imager); assay type: in vivo
Source text: FIG. 3 depicts an overlay of half body (top raw) and whole body (bottom raw) fluorescence image over white light images after adjusting the threshold. KB tumor bearing mice injected with 10 nmol of BPheid-a (1) and image with IVIS imager (ex=745 nm, em=ICG, exposure time=1 s) at different time intervals.
FIG. 13 depicts an overlay of whole body fluorescence image over white light images after adjusting the threshold. KB tumor bearing mice injected with 10 nmol of 65a and image with IVIS imager (ex=745 nm, em=ICG, exposure time=1 s) at different time intervals.
In the following examples, the in vivo efficacy of the compounds is determined using KB tumor cell xenograft in nude mice. In these studies, KB cells were implanted subcutaneously and growth of the tumors was monitored. For time dependent whole body imaging, once tumors become 250-350 mm^3, the compounds were injected via tail vein and accumulation of the PS in the tumor was monitored (over 48 hours) using fluorescence imaging using IVIS imager. Moreover, once tumors grow to […], the compounds were injected via tail vein. Three hours (3 h) after injecting with the compound, tumor was treated with laser beam (75 mW/cm^2, 137 J/cm^2, exposure diameter=7.5-8 mm) for […]. In vivo efficacy of BPheid-a was evaluated by monitoring reduction of tumor volume.

[3] = Activation wavelength of non-targeted PDT agents; assay type: physicochemical; conditions: Table 1
KB cells [4] = experiment: cells; conditions: Homo sapiens
subcutaneous KB tumor [5] = experiment: In vivo PDT efficacy on growth of subcutaneous KB tumor xenograft in nude mice; conditions: 25 nmol dose, laser 75 mW/cm^2, 137 J/cm^2, 38 min, 3 h after injection
[6] = test system: folate receptor positive cancer; conditions: cited from earlier work
[7] = rats; cited from earlier work
[8] = dogs; cited from earlier work
[9] = 50 nmol dose, laser 75 mW/cm^2, 137 J/cm^2, 38 min, 3 h after injection
[10] = 10 nmol injected, KB tumor bearing nude mice
[11] = Table 1, non-targeted PDT agents, free drugs in DMSO, 2 h incubation, laser 6 mW/cm^2, 12 J/cm^2, 32 min, then 24 h

Molecule: CC[C@H]1c2cc3[nH]c4c(c3C)C(=O)C(C(=O)OC)c4c3nc(cc4[nH]c(cc(n2)[C@@H]1C)c(C(C)=O)c4C)[C@@H](C)[C@@H]3CCC(=O)NNC(=O)OCCSSC[C@H](NC(=O)CCOCCOCCOCCOCCOCCOCCNC(=O)CC[C@H](NC(=O)c1ccc(NCc2cnc3nc(N)[nH]c(=O)c3n2)cc1)C(=O)O)C(=O)O (single isomer, unassigned) [Compound 76b]
- Effect on growth of subcutaneous KB tumor, in words (subcutaneous KB tumor [1]; [9]): less active in mice as compared to 76a and 76c; also recorded: completely cured with no recurrence during the monitored time (3 weeks)
- EC50 (KB cells [2]; 2 h): 320 nM

Molecule: CC[C@H]1c2cc3[nH]c4c(c3C)C(=O)[C@H](C(=O)OC)c4c3nc(cc4[nH]c(cc(n2)[C@@H]1C)c(C(C)=O)c4C)[C@@H](C)[C@@H]3CCC(=O)O [Compound 1, Bacteriopheophorbide-a, reference compound]
- Fluorescence in the tumor (level or comparison with other conjugates) (KB tumors; [10]): very low
- Tumor specificity / uptake in other tissues (whole body images) (KB tumors; [10]): nonspecific uptake of BPheid-a in the skin
- Time to localize / accumulate in the tumor after administration (KB tumors; 10 nmol injected, KB tumor bearing nude mice, fluorescence imaging): ~24 h
- Effect on growth of subcutaneous KB tumor, in words (subcutaneous KB tumor [1]; [9]): some effect
- KB tumor doubling time after treatment (subcutaneous KB tumor [1]; 50 nmol, laser 75 mW/cm^2, 137 J/cm^2, 38 min, 3 h after injection): < 1 week
- Tumor volume reached by the end of the two week treatment period (subcutaneous KB tumor [1]; 50 nmol, laser 38 min 3 h after injection): > 600 mm^3
- Activation Wavelength [3]: 750 nm
- EC50 (KB cells [2]; [11]): 745 nM
- EC50 (KB cells [2]; Table 2, mitochondrial-targeted modified PDT agents, free drugs in DMSO, 2 h incubation, laser 32 min, then 24 h): 745 nM
- IC50 (KB cells [2]; Table 3, nucleus-targeted modified PDT agents, free drugs in DMSO, 2 h incubation, laser 32 min, then 24 h): 745 nM
- EC50 (KB cells [2]; Table 7, folate-targeted releasable BPheid-a conjugates, different soluble linkers): 745 nM
- EC50 (KB cells [2]; Table 9, folate conjugates releasing cationic BPheid-a analogues): 745 nM
- EC50 (KB cells [2]; Table 11, folate conjugates releasing anionic BPheid-a analogues): 745 nM

Molecule: CC[C@H]1c2cc3[n-]c4c(c3C)C(=O)[C@H](C(=O)OC)c4c3nc(cc4[n-]c(cc(n2)[C@@H]1C)c(C(C)=O)c4C)[C@@H](C)[C@@H]3CCC(=O)O.[Pd+2] [Compound 2, Tookad, reference compound]
- Activation Wavelength [3]: 760 nm
- EC50 (KB cells [2]; [11]): 10400 nM

Molecule: CC[C@H]1c2cc3[nH]c(c(CC(=O)OC)c4nc(cc5[nH]c(cc(n2)[C@@H]1C)c(C(C)=O)c5C)[C@@H](C)[C@@H]4CCC(=O)NCCC[C@H](NC(=O)CC[P+](c1ccccc1)(c1ccccc1)c1ccccc1)C(=O)OC(C)(C)C)c(C(=O)N[N+](C)(C)C)c3C [Compound 15]
- EC50 (KB cells [4]): 47.6 nM

Molecule: CC[C@H]1c2cc3[nH]c4c(c3C)C(=O)C(C(=O)OC)c4c3nc(cc4[nH]c(cc(n2)[C@@H]1C)c(C(C)=O)c4C)[C@@H](C)[C@@H]3CCC(=O)NCCSSC[C@H](NC(=O)[C@H](CC(=O)NCCS(=O)(=O)O)NC(=O)CC[C@H](NC(=O)c1ccc(NCc2cnc3nc(N)[nH]c(=O)c3n2)cc1)C(=O)O)C(=O)O (stereo partly drawn) [Compound 64]
- Effect on growth of subcutaneous KB tumor, in words (subcutaneous KB tumor [1]; [9]): completely cure the tumor and showed tumor regression for 2 weeks

Molecule: CC[C@H]1c2cc3[nH]c4c(c3C)C(=O)C(C(=O)OC)c4c3nc(cc4[nH]c(cc(n2)[C@@H]1C)c(C(C)=O)c4C)[C@@H](C)[C@@H]3CCC(=O)NNC(=O)OCCSSC[C@H](NC(=O)[C@H](CC(=O)NCCS(=O)(=O)O)NC(=O)CC[C@H](NC(=O)c1ccc(NCc2cnc3nc(N)[nH]c(=O)c3n2)cc1)C(=O)O)C(=O)O (stereo partly drawn) [Compound 65a]
- Effect on growth of subcutaneous KB tumor, in words (subcutaneous KB tumor [1]; [9]): completely cured with no recurrence during the monitored time (13 weeks)
- Effect on growth of subcutaneous KB tumor, in words (subcutaneous KB tumor [1]; 50 and 25 nmol doses, laser 38 min 3 h after injection): tumor regression at both doses (50 and 25 nmol)
- Effect on growth of subcutaneous KB tumor, in words (subcutaneous KB tumor [5]): completely cured with no recurrence during the monitored time (4 weeks)

Molecule: CC[C@@H]1c2cc3[nH]c4c(c3C)C(=O)C(C(=O)OC)c4c3nc(cc4[nH]c(cc(n2)[C@H]1C)c(C(C)=O)c4C)[C@H](C)[C@H]3CCC(=O)NCCC[C@@H](C(=O)NNC(=O)OCCSSC[C@H](NC(=O)[C@H](CC(=O)NCCS(=O)(=O)O)NC(=O)CC[C@H](NC(=O)c1ccc(NCc2cnc3nc(N)[nH]c(=O)c3n2)cc1)C(=O)O)C(=O)O)[N+](C)(C)C (stereo partly drawn) [Compound 89a]
- Effect on growth of subcutaneous KB tumor, in words (subcutaneous KB tumor [1]; [9]): completely reduced the tumor
- EC50 (KB cells [2]; 2 h): 3.7 nM

Molecule: CC[C@H]1c2cc3[nH]c4c(c3C)C(=O)C(C(=O)OC)c4c3nc(cc4[nH]c(cc(n2)[C@@H]1C)c(C(C)=O)c4C)[C@@H](C)[C@@H]3CCC(=O)NC(CC(=O)NC1C(O)OC(CO)C(O)C1O)C(=O)NNC(=O)OCCSSC[C@H](NC(=O)[C@H](CC(=O)NCCS(=O)(=O)O)NC(=O)CC[C@H](NC(=O)c1ccc(NCc2cnc3nc(N)[nH]c(=O)c3n2)cc1)C(=O)O)C(=O)O (stereo partly drawn) [Compound 92a]
- Effect on growth of subcutaneous KB tumor, in words (subcutaneous KB tumor [1]; [9]): completely reduced the tumor
- Activity class on KB cancer cells in culture (active / highly active) (KB cells [2]): active
- EC50 (KB cells [2]; 2 h): 32.8 nM

Molecule: CC[C@H]1c2cc3[nH]c4c(c3C)C(=O)C(C(=O)OC)c4c3nc(cc4[nH]c(cc(n2)[C@@H]1C)c(C(C)=O)c4C)[C@@H](C)[C@@H]3CCC(=O)NCCCC(C(=O)NCCSSC[C@H](NC(=O)[C@H](CC(=O)NCCS(=O)(=O)O)NC(=O)CC[C@H](NC(=O)c1ccc(NCc2cnc3nc(N)[nH]c(=O)c3n2)cc1)C(=O)O)C(=O)O)[N+](C)(C)C (stereo partly drawn) [Compound 100]
- Effect on growth of subcutaneous KB tumor, in words (subcutaneous KB tumor [1]; [9]): completely cure the tumor and showed tumor regression for 2 weeks; also recorded: completely cured with no recurrence during the monitored time (2 weeks)
- EC50 (KB cells [2]; 2 h): 12.8 nM

Molecule: CC[C@H]1c2cc3[nH]c4c(c3C)C(=O)C(C(=O)OC)c4c3nc(cc4[nH]c(cc(n2)[C@@H]1C)c(C(C)=O)c4C)[C@@H](C)[C@@H]3CCC(=O)NC(Cc1ccc(N(CCCl)CCCl)cc1)C(=O)NNC(=O)OCCSSC[C@H](NC(=O)[C@H](CC(=O)NCCS(=O)(=O)O)NC(=O)CC[C@H](NC(=O)c1ccc(NCc2cnc3nc(N)[nH]c(=O)c3n2)cc1)C(=O)O)C(=O)O (stereo partly drawn) [Compound 112a]
- Fluorescence in the tumor (level or comparison with other conjugates) (KB tumors; [10]): more highly fluorescent
- Tumor specificity / uptake in other tissues (whole body images) (KB tumors; [10]): highly specific for FR-positive tumors
- Localization in whole body images (KB tumors; 10 nmol, image 2 h after administering): localized mainly in the tumor
- EC50 (KB cells [2]; Table 12, folate-targeted releasable BPheid-a, miscellaneous): 0.5 nM

Molecule: OTL38
- Malignant lesions removed with the aid of OTL38 versus without it ([6]; clinical trial, image-guided surgery): approximately 5 ×
- Tumor cells removed by OTL38-guided resection ([6]; image-guided resection): approximately 95%
- Toxicity [7]: no toxicity
- Toxicity [8]: no toxicity

Molecule: Photofrin [Compound 7]
- Activation Wavelength [3]: 630 nm

Molecule: Visudyne [Compound 5, reference compound]
- Activation Wavelength [3]: 689 nm
- EC50 (KB cells [2]; [11]): 838 nM

Molecule: tookad soluble [Compound 4, reference compound]
- Activation Wavelength [3]: 750 nm
- EC50 (KB cells [2]; [11]): 7760 nM

From patent US12144874B2, “Synthesis and composition of photodynamic therapeutic agents for the targeted treatment of cancer” (On Target Laboratories, LLC, priority 2015, dated 2024)
